US20250109127A1, “METHODS OF USE OF PHENOXYPROPYLAMINE COMPOUNDS TO TREAT DEPRESSION” (Minerva Neurosciences, Inc., priority 2013, published 2025)
Where “and” joins values, the source holds several entries; their conditions need not be identical. Equal values may be shown once.

System: 5-HT release in the rat prefrontal cortex
Assay: Microdialysis: 5-HT release in prefrontal cortex after I.P. administration
Assay type: in vivo
Settings: for 5-HT in dialysate, MEAN / 5-HT in dialysate, individual animals: Citalopram 10 mg/kg I.P.
Protocol: The aim of the study was to evaluate, using microdialysis, the effects of an intraperitoneal (I.P.) administration in rats of three different doses of SON-117 on dopamine and its metabolites, serotonin and its metabolite (5-HIAA), and norepinephrine levels in prefrontal cortex.
Thirty-two adult male Wistar rats were used for the whole study (4 groups of eight animals planned for the study, Table 1).
Surgery was performed on rats weighing about 300 g at the beginning of the experiments. Rats were anaesthetized with Ketamine (50 mg/kg) & Xylazine (15 mg/kg) by intramuscular administration. The animals were placed in a stereotaxic apparatus in the flat-skull position at a constant setting of −3.3 mm between ear bars and the incisor bar. The animals were treated with a local anesthesic (xylocaine 1%, Astra Zeneca) and an analgesic (Temgesic, from Schering Plough, 0.05 mg/kg, s.c.). A rostrocaudal midline incision was made with a lancet to expose the dorsal skull surface. The “stereotaxic zero” was defined by the Bregma in accordance with Paxinos and Watson's atlas (1986). A hole was drilled in the skull with a drill and the meninges were pierced with a sterile needle to implant a CMA12 guide cannula which later received the dialysis probe.
Coordinates used for implanting guide cannula in prefrontal cortex from Bregma were anteroposterior 3.7 mm, mediolateral 0.8 mm, and dorsoventral −2 mm (top of the probe was at −5 mm). The guide cannula was fixed to the skull with two stainless steel screws (1.88 mm outside diameter) anchored. An application of dental cement was added. A plastic collar allowed each animal to be tethered to a Swivel assembly of the CMA 120 awake animal system. Following surgery, rats were kept in individual cages and allowed to recover for a minimum of 3-5 days before the experimentation. The rats were handled and put in plastic bowl for 10 min at least every day to habituate the animals to their new environment for the dialysis. An I.P. administration with saline was also performed every day.
Dialysis probes (CMA12/3 mm, membrane, 20 kD cut-off, Carnegie Medicine, Stockholm, Sweden), were carefully washed before inserting into the guide cannula. The wash was performed with the artificial cerebrospinal fluid (aCSF) medium (NaCl 147 mM, KCl 2.7 mM, CaCl2 1.2 mM, MgCl2 0.85 mM) at room temperature. The dialysis system was then equilibrated at 20° C. at a perfusion rate of 1 μl/min with a Carnegie pump (CMA100). All catheters (FEP tubing, internal volume of 1.2 μl/10 cm, and tubing adaptors) used for microdialysis were treated in the same conditions.
The probes duly prepared were inserted into the guide cannula and the CMA120 Swivel assembly secured to the animal using a plastic collar. Flow through the dialysis probe with aCSF was maintained at a rate of 1 μl/min during the whole experimentation. The first four fractions (corresponding to 2 hours) were discarded to avoid the effects of parenchymal disturbance and to ensure that an approximate steady-state level was reached. Fractions were then collected over a period of 8.5 h during which time the animals remained quiet. The dialysates were automatically collected with an autosampler (microfraction collector CMA 140, Carnegie Medicin) and stored at −80° C. until analysis. […] Perfusion was then maintained for 7 hours with aCSF. The dialysates (30 μl) were collected into 300 μl vials, transferred into dry ice and then kept frozen (−80° C.) until analysis. Frozen samples were shipped to a partner for analysis. At the end of the microdialysis study, a PBS with colored ink was perfused through the probe in order to visualize the dialyzed area.
Catecholamine assay: Concentrations of dopamine, DOPAC, HVA, 5-HIAA, 5-HT, and norepinephrin were determined for each sample by HPLC coupled with electrochemical detection. […]

With `CN(C)CCCC1(c2ccc(F)cc2)OCc2cc(C#N)ccc21` (centres unmarked) [Citalopram, citalopram, reference compound] the “5-HT in dialysate, MEAN” value (T0-T30 min) was 85.23 % of respective basal, the “5-HT in dialysate, MEAN” value (T30-T1 h) was 218.92 % of respective basal and the “5-HT in dialysate, individual animals” value (T30-T1 h) was 203.59 % of respective basal and 157.98 % of respective basal and 133.67 % of respective basal and 139.45 % of respective basal and 219.64 % of respective basal and 344.10 % of respective basal and 285.92 % of respective basal and 267.00 % of respective basal. For the same molecule, the “5-HT in dialysate, MEAN” value (T1 h 30-T2 h) was 170.67 % of respective basal, the “5-HT in dialysate, individual animals” value (T1 h 30-T2 h) was 103.23 % of respective basal and 101.96 % of respective basal and 153.81 % of respective basal and 83.91 % of respective basal and 207.6 % of respective basal and 351.79 % of respective basal and 164.94 % of respective basal and 198.14 % of respective basal and the “5-HT in dialysate, MEAN” value (T1 h-T1 h 30) was 171.48 % of respective basal. For the same molecule, the “5-HT in dialysate, individual animals” value (T1 h-T1 h 30) was 162.56 % of respective basal and 151.29 % of respective basal and 167.46 % of respective basal and 128.56 % of respective basal and 232.85 % of respective basal and 235.03 % of respective basal and 158.66 % of respective basal and 135.42 % of respective basal, the “5-HT in dialysate, MEAN” value (T2 h 30-T3 h) was 116.57 % of respective basal and the “5-HT in dialysate, individual animals” value (T2 h 30-T3 h) was 109.55 % of respective basal and 38.11 % of respective basal and 79.68 % of respective basal and 57.89 % of respective basal and 152.73 % of respective basal and 299.86 % of respective basal and 89.94 % of respective basal and 104.76 % of respective basal. The “5-HT in dialysate, MEAN” value (T2 h-T2 h 30) was 138.70 % of respective basal, the “5-HT in dialysate, individual animals” value (T2 h-T2 h 30) was 97.34 % of respective basal and 43.80 % of respective basal and 100.91 % of respective basal and 83.82 % of respective basal and 153.02 % of respective basal and 315.50 % of respective basal and 215.03 % of respective basal and 100.89 % of respective basal and the “5-HT in dialysate, MEAN” value (T3 h 30-T4 h) was 126.49 % of respective basal. The “5-HT in dialysate, individual animals” value (T3 h 30-T4 h) was 93.89 % of respective basal and 20.30 % of respective basal and 84.02 % of respective basal and 59.96 % of respective basal and 97.06 % of respective basal and 476.98 % of respective basal and 67.07 % of respective basal and 112.62 % of respective basal, the “5-HT in dialysate, MEAN” value (T3 h-T3 h 30) was 136.30 % of respective basal and the “5-HT in dialysate, individual animals” value (T3 h-T3 h 30) was 88.23 % of respective basal and 47.91 % of respective basal and 85.22 % of respective basal and 48.54 % of respective basal and 108.35 % of respective basal and 516.29 % of respective basal and 70.00 % of respective basal and 125.89 % of respective basal. For the same molecule, the “5-HT in dialysate, MEAN” value (T4 h 30-T5 h) was 90.86 % of respective basal, the “5-HT in dialysate, individual animals” value (T4 h 30-T5 h) was 89.09 % of respective basal and 13.90 % of respective basal and 77.20 % of respective basal and 44.62 % of respective basal and 120.70 % of respective basal and 212.73 % of respective basal and 55.57 % of respective basal and 113.09 % of respective basal and the “5-HT in dialysate, MEAN” value (T4 h-T4 h 30) was 97.87 % of respective basal. For the same molecule, the “5-HT in dialysate, individual animals” value (T4 h-T4 h 30) was 128.06 % of respective basal and 25.07 % of respective basal and 73.75 % of respective basal and 50.85 % of respective basal and 85.54 % of respective basal and 261.90 % of respective basal and 76.87 % of respective basal and 80.93 % of respective basal, the “5-HT in dialysate, MEAN” value (T5 h 30-T6 h) was 75.87 % of respective basal and the “5-HT in dialysate, individual animals” value (T5 h 30-T6 h) was 78.66 % of respective basal and 7.95 % of respective basal and 69.20 % of respective basal and 42.04 % of respective basal and 72.98 % of respective basal and 142.95 % of respective basal and 74.38 % of respective basal and 118.79 % of respective basal. The “5-HT in dialysate, MEAN” value (T5 h-T5 h 30) was 92.05 % of respective basal, the “5-HT in dialysate, individual animals” value (T5 h-T5 h 30) was 77.74 % of respective basal and 11.81 % of respective basal and 73.01 % of respective basal and 50.89 % of respective basal and 87.24 % of respective basal and 227.76 % of respective basal and 54.20 % of respective basal and 153.73 % of respective basal and the “5-HT in dialysate, MEAN” value (T6 h 30-T7 h) was 76.63 % of respective basal. For the same molecule, the “5-HT in dialysate, individual animals” value (T6 h 30-T7 h) was 87.93 % of respective basal and 11.23 % of respective basal and 60.60 % of respective basal and 41.05 % of respective basal, the “5-HT in dialysate, MEAN” value (T6 h-T6 h 30) was 79.25 % of respective basal and the “5-HT in dialysate, individual animals” value (T6 h-T6 h 30) was 70.23 % of respective basal and 12.51 % of respective basal and 74.22 % of respective basal and 42.28 % of respective basal and 81.01 % of respective basal and 173.04 % of respective basal and 63.01 % of respective basal and 117.68 % of respective basal. The “5-HT in dialysate, MEAN” value (T-30 min-T0 (pre-dose)) was 87.59 % of respective basal, the “5-HT in dialysate, MEAN” value (T-1 h 30-T-1 h (pre-dose)) was 108.45 % of respective basal and the “5-HT in dialysate, MEAN” value (T-1 h-T-30 min (pre-dose)) was 105.84 % of respective basal. For the same molecule, the “5-HT concentrations in prefrontal cortex, significant increase” value (citalopram 10 mg/kg IP, from 1 h to 2 h) was 219% and the “5-HT release, maximum increase observed” value (citalopram 10 mg/kg, at 1 h) was 218%.
